Laboratory results: PMC12391391, “The balance between B55α and Greatwall expression levels predicts sensitivity to Greatwall inhibition in cancer cells” (Nature Communications, 2025)
Like-named read-outs stand apart in the source and are kept apart here.

Assays:
[1] = in vitro; set-up: intrinsic clearance in mouse microsomes; conditions: liver microsomes; mouse liver microsomes
Text: (§1) We selected compound 1 as the lead exemplar of cluster 3 and leveraged it as a foundation for subsequent drug development (Fig. 1a). Structure-activity relationship studies and pharmacokinetic profiling produced several derivative molecules, of which compound 21 provided the best combination of outstanding inhibitory potential, low clearance in mouse microsomes and acceptable solubility (Fig. 1a–c and Supplementary Tables 1–4). […] This assessment was supported by structural modelling of the interaction between compound 21 and the active site of GWL (Fig. 1d). In further support of its GWL-targeting properties, compound 21 diminished the phosphorylation of the canonical GWL substrate ENSA(S67) in Xenopus laevis cytostatic factor (CSF) egg extract (Supplementary Fig. 2). Having satisfied the criteria of prospective GWL inhibitor, the racemic compound 21 was registered as UOS-00054604 and, for the remainder of the manuscript, is referred to as C-604.

[2] = molecular target: T1, Greatwall kinase (GWL, MASTL) (Homo sapiens, UniProt Q96GX5, K72M); experiment: biochemical; set-up: HTRF kinase assay with full-length GWL and ENSA, inhibition
T1 construct: full-length
T1 sequence (Q96GX5 1-879 K72M): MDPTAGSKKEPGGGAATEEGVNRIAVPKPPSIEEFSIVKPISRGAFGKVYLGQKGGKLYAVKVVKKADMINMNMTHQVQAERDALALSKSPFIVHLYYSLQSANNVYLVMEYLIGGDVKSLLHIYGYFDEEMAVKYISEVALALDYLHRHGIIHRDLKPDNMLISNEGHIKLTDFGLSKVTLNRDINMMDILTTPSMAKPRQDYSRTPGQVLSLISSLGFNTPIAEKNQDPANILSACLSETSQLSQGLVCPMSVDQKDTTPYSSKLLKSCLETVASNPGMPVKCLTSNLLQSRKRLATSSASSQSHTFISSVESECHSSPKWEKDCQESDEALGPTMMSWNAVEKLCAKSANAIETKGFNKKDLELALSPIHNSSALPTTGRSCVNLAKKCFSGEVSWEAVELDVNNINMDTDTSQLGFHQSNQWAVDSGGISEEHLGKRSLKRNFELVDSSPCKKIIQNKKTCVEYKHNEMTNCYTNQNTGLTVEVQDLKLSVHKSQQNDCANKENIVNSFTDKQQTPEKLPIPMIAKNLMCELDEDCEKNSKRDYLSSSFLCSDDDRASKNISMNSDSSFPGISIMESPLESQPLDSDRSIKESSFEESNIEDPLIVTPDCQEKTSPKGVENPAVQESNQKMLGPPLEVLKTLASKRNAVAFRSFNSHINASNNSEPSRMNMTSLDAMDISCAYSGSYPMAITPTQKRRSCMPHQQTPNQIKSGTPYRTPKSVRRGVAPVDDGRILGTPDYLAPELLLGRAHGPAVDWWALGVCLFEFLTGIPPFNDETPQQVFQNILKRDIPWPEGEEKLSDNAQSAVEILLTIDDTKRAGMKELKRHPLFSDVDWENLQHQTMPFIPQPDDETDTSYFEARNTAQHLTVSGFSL
Text: To discover small molecules interfering with GWL activity, we screened a kinase-focused subset of the AstraZeneca compound collection in the full-length hyperactive GWL (K72M) homogeneous time-resolved fluorescence (HTRF) assay. The kinase screening collection comprised around 40,000 samples of interest, augmented by exemplars of kinase hinge-binding motifs, literature-reported kinase actives and screening catalogue purchases (mean MW ≈ 360, mean clogP ≈ 2.8), aiming to achieve as wide a coverage of the kinome as possible. Initially, we selected potential active molecules with a z-score ≤ −5 (equivalent to approximately 25% inhibition or better) and performed compound clustering, followed by near-neighbour testing and determination of relevant median inhibitory concentration (IC50) values. Subsequent re-clustering based on GWL inhibitory potency, Cdk1 selectivity, broad kinome selectivity and additional known factors influencing drug developability, such as molecular weight, lipophilicity and the number of hydrogen donors and acceptors, generated six prioritised compound clusters (Supplementary Fig. 1a, b). […] Despite the favourable kinase selectivity profile of cluster 5, we considered this series less attractive due to the limited number of compounds (n = 5) and suboptimal molecular properties for a hit, such as higher lipophilicity, lower binding efficiency (as indicated by ligand-lipophilic efficiency, LLE) and greater molecular weight (Supplementary Fig. 1a, b). […] We selected compound 1 as the lead exemplar of cluster 3 and leveraged it as a foundation for subsequent drug development (Fig. 1a). Structure-activity relationship studies and pharmacokinetic profiling produced several derivative molecules, of which compound 21 provided the best combination of outstanding inhibitory potential, low clearance in mouse microsomes and acceptable solubility (Fig. 1a–c and Supplementary Tables 1–4). […] This assessment was supported by structural modelling of the interaction between compound 21 and the active site of GWL (Fig. 1d). In further support of its GWL-targeting properties, compound 21 diminished the phosphorylation of the canonical GWL substrate ENSA(S67) in Xenopus laevis cytostatic factor (CSF) egg extract (Supplementary Fig. 2). Having satisfied the criteria of prospective GWL inhibitor, the racemic compound 21 was registered as UOS-00054604 and, for the remainder of the manuscript, is referred to as C-604.  Fig. 1 Development and characterisation of the GWL kinase inhibitor C-604. a Chemical structure of the lead exemplar compound 21 and the general synthetic route towards the preparation of pyrrolopyrazine GWL inhibitors. (a) for 4a, (i) NaH, SEM-Cl, DMF, 0 °C, 4 h; (ii) Arnold’s reagent, CHCl3, 60 °C, 20 h; (iii) NaClO2, KH2PO4, NH2SO3H, 1,4-dioxane/water, 0 °C to rt, 2 h, 35% (three steps); for 4b, (i) hexamine, TFA, MW, 80 °C, 20 min; (ii) NaH, SEM-Cl, DMF, 0 °C to rt, 16 h; (iii) NaClO2, KH2PO4, NH2SO3H, 1,4-dioxane/water, 0 °C to rt, 1.5 h, 14% (three steps); (b) 2 M methylamine in THF, T3P, pyridine, EtOAc, 60 °C, 2-4 h, 89-97%; (c) 2-(pyrrolidin-1-yl)ethanol, CuI, L-proline, K2CO3, DMSO, 100 °C, 16 h, 48%; (d) TFA, DCM, rt, 16 h then ethylenediamine, DCM, rt, 3-6 h, 29-92%; (e) 1-methylpiperazine, CuI, L-proline, K2CO3, DMSO, 100 °C, 16 h, 77%; (f) boronate ester, Pd(dppf)Cl2 · DCM, 1,4-dioxane/water, MW, 120 °C, 30 min, 43-81%; (g) boronate ester, Pd(dppf)Cl2 · DCM, 1,4-dioxane/water, MW, 120 °C, 30 min, 56%; (h) amine, K2CO3, DMF, 95 °C, 1 h, 32-67%. b Chemical structure of the lead compound 21 (C-604). c Dose-dependent effect of compound 21 (C-604) on the in vitro GWL activity measured by an HTRF assay utilising purified full-length GWL (K72M) and ENSA. Per cent (%) inhibition was determined from fluorescence intensity values normalised to the signal measured in the control enzyme-free reaction. […]

[3] = molecular target: T2, CDK1/cyclinB (Homo sapiens, UniProt P06493); experiment: biochemical; set-up: CDK1/cyclin B and off-target kinase inhibition assay
T2 sequence (P06493 whole entry): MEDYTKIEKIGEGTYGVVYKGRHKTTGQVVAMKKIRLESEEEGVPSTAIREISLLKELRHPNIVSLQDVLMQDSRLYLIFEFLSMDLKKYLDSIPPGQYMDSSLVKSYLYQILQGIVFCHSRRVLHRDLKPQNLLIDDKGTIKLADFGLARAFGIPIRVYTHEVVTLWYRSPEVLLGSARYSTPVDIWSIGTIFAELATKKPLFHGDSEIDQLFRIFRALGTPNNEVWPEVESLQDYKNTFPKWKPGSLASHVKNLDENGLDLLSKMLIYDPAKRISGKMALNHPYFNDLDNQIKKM
T2 sequence (P14635 whole entry partner): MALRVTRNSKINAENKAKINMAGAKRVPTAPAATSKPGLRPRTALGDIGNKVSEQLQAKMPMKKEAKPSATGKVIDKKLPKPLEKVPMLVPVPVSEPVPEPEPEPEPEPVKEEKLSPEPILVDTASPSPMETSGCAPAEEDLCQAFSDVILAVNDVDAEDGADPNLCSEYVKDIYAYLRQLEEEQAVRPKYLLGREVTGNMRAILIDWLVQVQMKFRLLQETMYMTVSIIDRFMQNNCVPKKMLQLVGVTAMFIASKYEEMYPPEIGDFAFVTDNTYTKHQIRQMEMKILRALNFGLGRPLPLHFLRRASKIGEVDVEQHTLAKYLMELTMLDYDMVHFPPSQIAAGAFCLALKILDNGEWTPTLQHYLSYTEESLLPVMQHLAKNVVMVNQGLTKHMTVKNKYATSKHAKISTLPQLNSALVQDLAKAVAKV

[4] = in vitro; set-up: intrinsic clearance in human microsomes; conditions: liver microsomes, human liver microsomes
Text: as §1

[5] = physchem; set-up: aqueous solubility at pH 7.0; conditions: pH 7.0; buffer pH 7.0; aqueous buffer pH 7.0
Text: as §1

[6] = molecular target: T1, Greatwall kinase (GWL, MASTL); experiment: HTRF kinase assay with purified full-length GWL (K72M) and ENSA; type: biochemical
[7] = molecular target: T2, CDK1/cyclinB; experiment: biochemical; set-up: CDK1/cyclin B and off-target kinase inhibition assay; conditions: read-out: off-target pIC50 (converted)
[8] = molecular target: T3, hERG (Homo sapiens, UniProt Q12809); experiment: cell-based; set-up: hERG channel inhibition
T3 construct: gene KCNH2
T3 sequence (Q12809 whole entry): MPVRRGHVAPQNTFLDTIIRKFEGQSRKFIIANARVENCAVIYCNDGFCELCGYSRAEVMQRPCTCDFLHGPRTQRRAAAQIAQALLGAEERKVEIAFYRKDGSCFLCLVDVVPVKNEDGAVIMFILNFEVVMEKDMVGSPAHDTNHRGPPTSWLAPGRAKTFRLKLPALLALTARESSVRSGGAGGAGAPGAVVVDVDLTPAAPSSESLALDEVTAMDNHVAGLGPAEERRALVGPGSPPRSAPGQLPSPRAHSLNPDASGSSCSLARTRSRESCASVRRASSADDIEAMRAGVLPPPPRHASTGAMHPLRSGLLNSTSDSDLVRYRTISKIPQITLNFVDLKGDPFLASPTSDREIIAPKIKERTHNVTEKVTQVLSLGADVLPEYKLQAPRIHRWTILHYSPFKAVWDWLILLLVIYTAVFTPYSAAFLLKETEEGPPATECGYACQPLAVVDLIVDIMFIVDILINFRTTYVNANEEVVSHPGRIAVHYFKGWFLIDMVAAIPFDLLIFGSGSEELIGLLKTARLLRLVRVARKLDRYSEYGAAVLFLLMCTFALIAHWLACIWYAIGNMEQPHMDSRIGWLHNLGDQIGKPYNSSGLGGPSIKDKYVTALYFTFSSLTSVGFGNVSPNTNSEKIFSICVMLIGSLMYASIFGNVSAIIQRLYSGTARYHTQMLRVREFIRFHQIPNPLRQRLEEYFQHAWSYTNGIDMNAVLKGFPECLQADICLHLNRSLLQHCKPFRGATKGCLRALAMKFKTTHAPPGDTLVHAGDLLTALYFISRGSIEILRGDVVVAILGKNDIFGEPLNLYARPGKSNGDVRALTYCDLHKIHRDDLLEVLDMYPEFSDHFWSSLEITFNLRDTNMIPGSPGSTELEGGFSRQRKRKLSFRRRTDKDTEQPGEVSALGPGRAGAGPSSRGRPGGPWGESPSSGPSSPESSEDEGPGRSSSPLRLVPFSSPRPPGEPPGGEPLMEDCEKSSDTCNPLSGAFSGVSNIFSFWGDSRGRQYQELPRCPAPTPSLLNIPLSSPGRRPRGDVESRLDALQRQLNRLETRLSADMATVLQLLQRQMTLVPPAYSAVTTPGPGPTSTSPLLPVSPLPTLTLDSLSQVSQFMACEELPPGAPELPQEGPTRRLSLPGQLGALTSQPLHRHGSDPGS
Text: as §1

[9] = molecular target: Syk (Homo sapiens, UniProt P43405); experiment: biochemical; set-up: CDK1/cyclin B and off-target kinase inhibition assay; conditions: read-out: off-target pIC50 (converted)

microsomal CLint [1] | IC50 [2] | SMILES | further results
– | 0.507 µM | CNC(=O)c1c[nH]c2ncc(-c3cccnc3)nc12 [compound 10, 10] | –
– | 0.206 µM | CNC(=O)c1c[nH]c2ncc(-c3cccc(CN(C)C)c3)nc12 [compound 11, 11] | –
– | 0.062 µM | CNC(=O)c1c[nH]c2ncc(-c3cccc(C(=O)NCCN(C)C)c3)nc12 [compound 12, 12] | –
83 µL/min/mg | – | CNC(=O)c1c[nH]c2ncc(-c3ccc(N4CCN(C)CC4)cc3)nc12 [compound 14, 14] | IC50 [3]: > 30 µM; microsomal CLint ([4]; read-out: Cl (human)): 9 µL/min/mg; solubility [5]: 260 µM
196 µL/min/mg | – | CNC(=O)c1c[nH]c2ncc(-c3cn(C)c4ccccc34)nc12 [compound 1, 1] | IC50 [3]: 1.48 µM; IC50 [7]: 3.16 µM; microsomal CLint ([4]; read-out: Cl (human)): 147 µL/min/mg; microsomal CLint ([4]; read-out: hMic Clint): 45 µL/min/mg; IC50 [8]: > 30 µM; solubility [5]: 15 µM; IC50 [9]: 0.0251 µM; IC50 ([2]; read-out: K72MGWL HTRF pIC50 (converted)): 0.1 µM
18 µL/min/mg | 0.031 µM | CNC(=O)c1c[nH]c2ncc(-c3ccc(OCCN4CCN(C)CC4)cc3)nc12 [compound 16, 16] | –
– | 0.339 µM | CNC(=O)c1c[nH]c2ncc(-c3ccc(C#N)cc3)nc12 [compound 8, 8] | –
– | 0.094 µM | CNC(=O)c1c[nH]c2ncc(-c3ccc(C(=O)NCCN(C)C)cc3)nc12 [compound 13, 13] | –

The next lines start with the compound.

SMILES | microsomal CLint [1] | IC50 [2] | further results
CNC(=O)c1c[nH]c2ncc(-c3ccc(OCCN4CCCC4)cc3)nc12 [compound 19, 19] | 37 µL/min/mg | – | –
CNC(=O)c1c[nH]c2ncc(-c3ccc(OCCN4CCN(C(C)=O)CC4)cc3)nc12 [compound 17, 17] | 7 µL/min/mg | 0.08 µM | –
CNC(=O)c1c[nH]c2ncc(OCCN3CCCC3)nc12 [compound 6, 6] | – | 5.88 µM | –
CNC(=O)c1c[nH]c2ncc(-c3ccc(OCCN4CCC(OC)CC4)cc3)nc12 [compound 18, 18] | – | – | solubility [5]: 504 µM
CNC(=O)c1c[nH]c2ncc(-c3ccc(OCCN4CC[C@@H](c5ccccc5)C4)cc3)nc12 [21 (S), compound 21, S stereoisomer] | – | – | IC50 [6]: 0.0109 ± 0.002 µM
CNC(=O)c1c[nH]c2ncc(-c3ccc(OCCN4CCOCC4)cc3)nc12 [compound 15, 15] | 11 µL/min/mg | 0.191 µM | –
CNC(=O)c1c[nH]c2ncc(N3CCN(C)CC3)nc12 [compound 7, 7] | – | 4.24 µM | –
CNC(=O)c1c[nH]c2ncc(-c3ccc(OCCN4CCCCC4)cc3)nc12 [compound 20, 20] | 12 µL/min/mg | – | solubility [5]: 585 µM
CNC(=O)c1c[nH]c2ncc(-c3ccc(OCCN4CC[C@H](c5ccccc5)C4)cc3)nc12 [21 (R), compound 21, R stereoisomer] | – | – | IC50 [6]: 0.0133 ± 0.0064 µM
